Results: publication PMC5164944 (Biochemical pharmacology, 2016)
Like-named read-outs stand apart in the source and are kept apart here. Marks after values point to notes of the source that are not given here.

Assays:
[1] = Steady state plasma concentrations in subjects on chronic bupropion XL; conditions: for Mean [I] (Range, n=5): 5 subjects, normalized to 300 mg/day bupropion dose
CYP2D6 [2] = biological target: T1, CYP2D6 (Homo sapiens, UniProt P10635); assay: Reversible CYP2D6 inhibition in human liver microsomes; conditions: for effect on CYP2D6 activity: 50 μM test concentration, HLM
[3] = female, human, 2.5 μM
CYP2D6 mRNA [4] = assay: in vitro; conditions: human
CYP2D6 [5] = biological target: T1, CYP2D6; assay: CYP2D6 inhibition in human suspension hepatocytes
[6] = Plasma protein binding by ultracentrifugation; assay type: in vitro ADME, human; conditions: unbound fraction in plasma
CYP2D6 [7] = biological target: T1, CYP2D6; assay: Static prediction of in vivo reversible CYP2D6 inhibition; conditions: for share of the predicted CYP2D6 inhibition in vivo caused by the compound: reversible inhibition only
CYP2D6 mRNA [8] = assay: CYP2D6 mRNA in plated human hepatocytes; conditions: for mean CYP2D6 mRNA levels, % of vehicle treated cells: three donors, 72 hours
[9] = Partitioning into human suspension hepatocytes; conditions: 1 μM, 30 min, total concentrations
CYP2D6 mRNA [10] = assay: CYP2D6 mRNA downregulation in HepG2 cells; conditions: for EC50: read-out: EC50 of CYP2D6 mRNA downregulation, 72 hrs
[11] = test system: CYP2D6 protein expression; assay: CYP2D6 protein expression in HepG2 cells; conditions: 72 hrs; for effect on CYP2D6 protein expression: erythrohydrobupropion 5 μM, threohydrobupropion 20 μM, R,R-OH-bupropion 20 μM
CYP2D6 [12] = biological target: T1, CYP2D6; assay: CYP2D6 activity in plated human hepatocytes; conditions: after 72 hr treatment
[13] = Media concentrations of bupropion and metabolites in plated human hepatocytes; conditions: for concentration of metabolite formed in bupropion treated cells: plated human hepatocytes treated with bupropion 2.5 μM; for Cmedia at 72 hr: 1 hr incubation after 71 hours treatment; for Cmedia at 1 hr: after 1 hr incubation without pretreatment
CYP2D6 [14] = biological target: T1, CYP2D6; conditions: from HepG2 Emax/EC50 and circulating concentrations, 300 mg/day bupropion
CYP3A4 mRNA = CYP3A4 mRNA in plated human hepatocytes; assay type: cell-based; conditions: 72 hours
[15] = cited from earlier work
CYP2D6 [16] = conditions: cited from earlier work

T1 sequence (P10635 whole entry): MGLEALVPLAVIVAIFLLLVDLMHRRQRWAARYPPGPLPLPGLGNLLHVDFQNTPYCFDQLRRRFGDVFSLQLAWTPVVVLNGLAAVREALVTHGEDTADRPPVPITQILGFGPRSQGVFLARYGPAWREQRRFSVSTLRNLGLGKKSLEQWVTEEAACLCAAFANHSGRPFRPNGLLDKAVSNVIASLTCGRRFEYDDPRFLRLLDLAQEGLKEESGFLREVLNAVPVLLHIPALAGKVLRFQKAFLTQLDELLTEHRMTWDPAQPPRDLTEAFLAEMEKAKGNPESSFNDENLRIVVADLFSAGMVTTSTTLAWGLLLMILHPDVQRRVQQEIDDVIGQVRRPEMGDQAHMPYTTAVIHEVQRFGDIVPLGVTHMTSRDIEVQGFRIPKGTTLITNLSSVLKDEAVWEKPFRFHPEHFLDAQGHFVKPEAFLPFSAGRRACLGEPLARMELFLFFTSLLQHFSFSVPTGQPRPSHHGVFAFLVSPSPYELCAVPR

## C[C@@H](NC(C)(C)C)C(=O)c1ccc(O)c(Cl)c1 [4′OH-bupropion, 4′-OH-bupropion]
[1]; steady state plasma
  Mean [I] (Range, n=5): 0.01 µM
CYP2D6 [2]
  effect on CYP2D6 activity: no effect

## CC(NC(C)(C)C)C(=O)c1cccc(Cl)c1 (stereo not shown) [Bupropion]
[3]; 71 h
  reduction of media concentration at the end of the pretreatment: 93%
[3]; 72 h
  Cmedia at 72 hr: 1.7 ± 0.5 µM
CYP2D6 mRNA [4]
  EC50 at 72 h: 210 nM
CYP2D6 [5]
  IC50: 13000 nM

## CC(NC(C)(C)C)C(O)c1cccc(Cl)c1 (stereo not drawn) [Erythro-hydrobupropion, erythrohydrobupropion]
[6]
  fu,p (S.D. n=3): 0.7±0.1
CYP2D6 [7]
  share of the predicted CYP2D6 inhibition in vivo caused by the compound: 9%
CYP2D6 mRNA [8]
  % decrease in CYP2D6 mRNA at 72 hrs: 80%
  mean CYP2D6 mRNA levels, % of vehicle treated cells: 20%
[9]
  cell concentration fold higher than medium: 9 fold
CYP2D6 mRNA [10]; 72 hrs
  maximum decrease in CYP2D6 mRNA: 85%
CYP2D6 mRNA [10]
  EC50: 1110 nM
[11]
  effect on CYP2D6 protein expression: slightly less effective
CYP2D6 [12]
  Apparent Percent Inhibition at 72 hrs: 93 ± 1%
[1]; steady state plasma
  circulating concentration fold higher than S-bupropion: ~3 fold
  circulating concentration fold lower than threohydrobupropion: about 6 fold
  Mean [I] (Range, n=5): 0.29 (0.19–0.41) μM
[13]
  concentration of metabolite formed in bupropion treated cells: 80 nM
[13]; plated human hepatocytes
  Cmedia at 72 hr: 2.1 ± 0.3 µM
  Cmedia at 1 hr: 1.6 ± 0.1 µM
CYP2D6 [14]
  predicted decrease in CYP2D6 mRNA if compound acted alone at steady state: 18%
CYP2D6 [2]; based on IC50 values in HLM
  fold more potent CYP2D6 inhibitor than threohydrobupropion: ~10 fold

## C[C@H]1NC(C)(C)CO[C@]1(O)c1cccc(Cl)c1 [OH-bupropion, hydroxybupropion]
[9]
  cell concentration fold higher than medium: 11 fold
[13]
  concentration of metabolite formed in bupropion treated cells: 120 nM

## C[C@H]1NC(C)(C)CO[C@]1(O)c1cccc(Cl)c1 [R,R-OH-bupropion]
[6]
  fu,p (S.D. n=3): 0.5±0.1
CYP2D6 [7]
  fold higher I/Ki than S,S-OH-bupropion: 36 fold
  share of the predicted CYP2D6 inhibition in vivo caused by the compound: 65%
CYP3A4 mRNA
  change in CYP3A4 mRNA: significantly increased CYP3A4 mRNA
[15]; single dose AUCs
  R,R-OH-bupropion to S,S-OH-bupropion ratio: 44–65
[15]; single dose of bupropion
  circulating concentration fold higher than bupropion and S,S-OH-bupropion: up to 65 fold
CYP2D6 mRNA [8]
  % decrease in CYP2D6 mRNA at 72 hrs: 72%
  mean CYP2D6 mRNA levels, % of vehicle treated cells: 28%
CYP2D6 mRNA [10]; 5-50 μM, 72 hrs
  effect on CYP2D6 mRNA: weakest effect
[11]
  effect on CYP2D6 protein expression: no effect
CYP2D6 [12]
  Apparent Percent Inhibition at 72 hrs: 83 ± 3%
[1]; steady state plasma
  steady state concentration ratio R,R-OH-bupropion / S,S-OH-bupropion: 13 fold
  Mean [I] (Range, n=5): 5.0 (3.0–9.4) μM
[13]; plated human hepatocytes
  Cmedia at 72 hr: 19 ± 3 µM
  Cmedia at 1 hr: 16 ± 1 µM
[13]; plated human hepatocytes, versus initial media concentration added
  reduction of media concentration at the end of the pretreatment: 33%
CYP2D6 [2]; based on IC50 values in HLM
  fold more potent CYP2D6 inhibitor than S,S-OH-bupropion: 3 fold

## C[C@@H](NC(C)(C)C)C(=O)c1cccc(Cl)c1 [R-Bupropion, R-bupropion, reference compound]
[6]
  fu,p (S.D. n=3): 0.5±0.1
[1]; steady state plasma
  Mean [I] (Range, n=5): 0.22 (0.05–0.34) μM

## C[C@@H]1NC(C)(C)CO[C@@]1(O)c1cccc(Cl)c1 [S,S-OH-bupropion]
[6]
  fu,p (S.D. n=3): 0.5±0.1
CYP2D6 mRNA [8]
  % decrease in CYP2D6 mRNA at 72 hrs: 74%
  mean CYP2D6 mRNA levels, % of vehicle treated cells: 26%
CYP2D6 mRNA [10]; 72 hrs
  maximum decrease in CYP2D6 mRNA: 85–88%
CYP2D6 mRNA [10]
  EC50: 200 nM
[11]; 5 μM, western blot
  downregulation of CYP2D6 protein expression: > 50%
CYP2D6 [12]
  Apparent Percent Inhibition at 72 hrs: 60 ± 11%
[1]; steady state plasma
  circulating concentration fold higher than S-bupropion: ~3 fold
  circulating concentration fold lower than threohydrobupropion: about 6 fold
  Mean [I] (Range, n=5): 0.39 ^* (0.26–0.67) μM
[13]; plated human hepatocytes
  Cmedia at 72 hr: 1.5 ± 0.2 µM
  Cmedia at 1 hr: 1.3 ± 0.1 µM

## C[C@H](NC(C)(C)C)C(=O)c1cccc(Cl)c1 [S-Bupropion, S-bupropion, reference compound]
[6]
  fu,p (S.D. n=3): 0.6±0.1
[1]; steady state plasma
  Mean [I] (Range, n=5): 0.08 ^* (0.02–0.11) μM

## C[C@H](NC(C)(C)C)[C@@H](O)c1cccc(Cl)c1 [Threo-hydrobupropion, threohydrobupropion]
[6]
  fu,p (S.D. n=3): 1.0±0.1
CYP2D6 [7]
  share of the predicted CYP2D6 inhibition in vivo caused by the compound: approximately 21%
CYP2D6 mRNA [8]
  % decrease in CYP2D6 mRNA at 72 hrs: 82%
  mean CYP2D6 mRNA levels, % of vehicle treated cells: 18%
[9]
  cell concentration fold higher than medium: 11 fold
CYP2D6 mRNA [10]; 72 hrs
  maximum decrease in CYP2D6 mRNA: 78%
CYP2D6 mRNA [10]; based on EC50
  fold less potent in downregulating CYP2D6 mRNA than the other compounds: 10–50 fold
CYP2D6 mRNA [10]
  EC50: 9950 nM
CYP2D6 [12]
  Apparent Percent Inhibition at 72 hrs: 92 ± 2%
[1]; average steady state plasma
  steady state concentration fold higher than erythrohydrobupropion: 7.2 fold
[1]; steady state plasma
  Mean [I] (Range, n=5): 2.1 (1.1–3.5) μM
[13]
  concentration of metabolite formed in bupropion treated cells: 1400 nM
[13]; plated human hepatocytes
  Cmedia at 72 hr: 8.2 ± 1.4 µM
  Cmedia at 1 hr: 7.1 ± 0.6 µM
CYP2D6 [14]
  predicted decrease in CYP2D6 mRNA if compound acted alone at steady state: 14%

## CNCCCN1c2ccccc2CCc2ccccc21 [desipramine]
CYP2D6 [16]
  fraction metabolized by CYP2D6 (fm): 90%

## CC(NC(C)(C)C)C(O)c1ccc(O)c(Cl)c1 (stereo not drawn) [threo-4′OH-bupropion, threo-4′-OH-hydrobupropion]
CYP2D6 [2]
  effect on CYP2D6 activity: no effect

## COc1ccc(C(CN(C)C)C2(O)CCCCC2)cc1 (stereo not shown) [venlafaxine]
CYP2D6 [16]
  fraction metabolized by CYP2D6 (fm): 80%
